Values after ≈ are worked out from the molar mass of the structure shown.
Tests used:
[1] = tested on: C. auris CBS10913; test: microbe, parasite or virus in culture; details: Candidozyma auris, read-out: MIC against C. auris
[2] = tested on: C. auris CBS 10913; test: microbe, parasite or virus in culture; format: cell-based, Candida auris; details: C. auris CBS 10913
Protocol: Amphotericin B was tested in parallel as a positive control (Ramesh et al. [2023]).

[3] = tested on: C. auris CBS12373; test: Broth microdilution MIC; format: cell-based, Candida auris; details: CBS 12 373; for MIC against C. auris: RPMI 1640 with MOPS, 5 × 10^3 CFU ml^−1, ≥90% reduction (≥50% for fluconazole)
[4] = tested on: C. auris CBS10913; details: CBS 10 913; RPMI 1640 with MOPS, 5 × 10^3 CFU ml^−1; ≥90% reduction (≥50% for fluconazole)
[5] = tested on: C. auris CBS 10913; test: Sorbitol protection assay; format: cell-based, Candida auris; details: C. auris CBS 10913; sorbitol 0.8 mol l^−1 in RPMI, till 7 days
Excerpt: Caspofungin served as a positive control for the assay (Leite et al. [2014]).

[6] = tested on: S. aureus 117; details: S. aureus 117; CAMHB, 37°C, 16–20 h
Protocol: (§1) Briefly, bacteria were suspended in cation-adjusted Mueller–Hinton broth (CAMHB; Oxoid, UK) for antibiotics, or MHB (Oxoid, UK) for peptidomimetics to obtain 5 × 10^5 colony forming unit (CFU) ml^−1. […] Positive controls contained only microbes, and blanks contained only media. Microbial suspensions (100 µl) were added to wells, plates wrapped, and incubated at 37°C, 120 rpm for 16–20 h. After incubation, suspensions were removed, log10 diluted, and plated on Trypticase Soya Agar with phosphatidylcholine and Tween 80 to determine minimum bactericidal or fungicidal concentration (MBC or MFC). […] Geometric mean MIC of the peptoids were calculated to evaluate the broad overview of antimicrobial activity across the pathogens.

[7] = tested on: S. aureus 04; details: S. aureus 04; CAMHB, 37°C, 16–20 h
Protocol: as §1

[8] = tested on: S. aureus 38; details: S. aureus 38; CAMHB, 37°C, 16–20 h
Protocol: as §1

[9] = tested on: S. aureus 105; details: S. aureus 105; CAMHB, 37°C, 16–20 h
Protocol: as §1

[10] = tested on: K. pneumoniae JIE2709; details: K. pneumoniae JIE2709; CAMHB, 37°C, 16–20 h
Protocol: as §1

[11] = tested on: En. cloacae 003; details: En. cloacae 003; CAMHB, 37°C, 16–20 h
Protocol: as §1

[12] = tested on: E. coli 0015; details: E. coli 0015; CAMHB, 37°C, 16–20 h
Protocol: as §1

[13] = tested on: E. coli 0011; details: E. coli 0011; CAMHB, 37°C, 16–20 h
Protocol: as §1

[14] = tested on: K. pneumoniae JIE2713; details: K. pneumoniae JIE2713; CAMHB, 37°C, 16–20 h
Protocol: as §1

[15] = tested on: En. cloacae 005; details: En. cloacae 005; CAMHB, 37°C, 16–20 h
Protocol: as §1

[16] = tested on: Enteroc. faecalis NCTC 13 379; details: Enteroc. faecalis NCTC 13 379; CAMHB, 37°C, 16–20 h
Protocol: as §1

[17] = tested on: K. pneumoniae JIE4212; details: K. pneumoniae JIE4212; CAMHB, 37°C, 16–20 h
Protocol: as §1

[18] = tested on: E. coli 0010; details: E. coli 0010; CAMHB, 37°C, 16–20 h
Protocol: as §1

[19] = tested on: En. cloacae 001; details: En. cloacae 001; CAMHB, 37°C, 16–20 h
Protocol: as §1

[20] = tested on: E. coli 005; details: E. coli 005; CAMHB, 37°C, 16–20 h
Protocol: as §1

[21] = tested on: C. auris CBS10913; test: Membrane integrity by flow cytometry (SYTO 9 / PI); format: cell-based, Candida auris; details: TM8 at its MIC or 1% Triton X-100, 90 min; PBS control 0.2%
Protocol: Afterwards, the cells were stained with SYTO 9 (7.5 µmol l^−1) and PI (30 µmol l^−1) for an additional 15 min in the dark at room temperature. Following washing, samples were then analysed for membrane integrity on a BD FACSymphony^TM A3, with a minimum of 10 000 events recorded per sample.

Row | Molecule | MIC of antibiotics [6] | MIC of antibiotics [7] | MIC of antibiotics [8] | MIC of antibiotics [9] | MIC of antibiotics [16] | other results
1 | C[C@@H]1[C@H](O)[C@@H](C)/C=C/C=C/C=C/C=C/C=C/C=C/C=C/[C@H](O[C@@H]2O[C@H](C)[C@@H](O)[C@H](N)[C@@H]2O)C[C@@H]2O[C@](O)(C[C@@H](O)C[C@@H](O)[C@H](O)CC[C@@H](O)C[C@@H](O)CC(=O)O[C@H]1C)C[C@H](O)[C@H]2C(=O)O [Amphotericin B, reference compound] | – | – | – | – | – | MIC [1]: 0.27 µM (≈ 0.25 µg/mL); Increase in MIC with ergosterol ([2]; ergosterol 200 µg ml^−1): five-fold; MIC ([2]; Candidozyma auris, CBS10913, RPMI, read-out: MIC in the absence of ergosterol): 0.25 µg/mL (≈ 0.271 µM); MIC against C. auris [3]: 0.25 µg/mL (≈ 0.271 µM); MIC ([3]; Candidozyma auris, value in brackets, read-out: MIC against C. auris): 0.27 µM (≈ 0.25 µg/mL); MIC against C. auris [4]: 0.25 µg/mL (≈ 0.271 µM)
2 | CC[C@H](C)C[C@H](C)CCCCCCCCC(=O)N[C@H]1C[C@@H](O)[C@@H](NCCN)NC(=O)[C@@H]2[C@@H](O)CCN2C(=O)[C@H]([C@H](O)CCN)NC(=O)[C@H]([C@H](O)[C@@H](O)c2ccc(O)cc2)NC(=O)[C@@H]2C[C@@H](O)CN2C(=O)[C@H]([C@@H](C)O)NC1=O [Caspofungin, reference compound] | – | – | – | – | – | MIC against C. auris [3]: 0.25 (228.7) µg ml^−1; MIC in the presence of sorbitol [5]: 1 µg/mL
3 | CO/N=C(\C(=O)N[C@@H]1C(=O)N2C(C(=O)O)=C(COC(C)=O)CS[C@H]12)c1csc(N)n1 [Cefox, cefotaxime, reference compound] | 0.5 µg/mL | 0.5 µg/mL | 0.5 µg/mL | 16 µg/mL | – | –
4 | O=C(N[C@H](CO)[C@H](O)c1ccc([N+](=O)[O-])cc1)C(Cl)Cl [Chl, chloramphenicol, reference compound] | 4 µg/mL | 2 µg/mL | 4 µg/mL | 32 µg/mL | 64 µg/mL | MIC of antibiotics [10]: >32 µg/mL; MIC of antibiotics [11]: 32 µg/mL; MIC of antibiotics [12]: 2 µg/mL; MIC of antibiotics [13]: 1 µg/mL; MIC of antibiotics [14]: 32 µg/mL; MIC of antibiotics [15]: 32 µg/mL; MIC of antibiotics [17]: 32 µg/mL; MIC of antibiotics [18]: 8 µg/mL; MIC of antibiotics [19]: 32 µg/mL; MIC of antibiotics [20]: 8 µg/mL
5 | CC[C@H]1OC(=O)[C@H](C)[C@@H](O[C@H]2C[C@@](C)(OC)[C@@H](O)[C@H](C)O2)[C@H](C)[C@@H](O[C@@H]2O[C@H](C)C[C@H](N(C)C)[C@H]2O)[C@](C)(O)C[C@@H](C)C(=O)[C@H](C)[C@@H](O)[C@]1(C)O [Ery, erythromycin, reference compound] | 1 µg/mL | 0.5 µg/mL | 1 µg/mL | 32 µg/mL | 4 µg/mL | –
6 | CN(C)c1ccc(O)c2c1C[C@H]1C[C@H]3[C@H](N(C)C)C(O)=C(C(N)=O)C(=O)[C@@]3(O)C(O)=C1C2=O [Min, minocycline, reference compound] | 0.5 µg/mL | 0.25 µg/mL | 0.5 µg/mL | 16 µg/mL | 0.5 µg/mL | –
7 | CN[C@H](CC(C)C)C(=O)N[C@H]1C(=O)N[C@@H](CC(N)=O)C(=O)N[C@H]2C(=O)N[C@H]3C(=O)N[C@H](C(=O)N[C@H](C(=O)O)c4cc(O)cc(O)c4-c4cc3ccc4O)[C@H](O)c3ccc(c(Cl)c3)Oc3cc2cc(c3O[C@@H]2O[C@H](CO)[C@@H](O)[C@H](O)[C@H]2O[C@H]2C[C@](C)(N)[C@H](O)[C@H](C)O2)Oc2ccc(cc2Cl)[C@H]1O [Van, vancomycin, reference compound] | 4 µg/mL | 1 µg/mL | 1 µg/mL | 1 µg/mL | 32 µg/mL | –
8 | Triton X-100 [reference compound] | – | – | – | – | – | Dead cells [21]: 27.3%
9 | penicillin [reference compound] | 16 µg/mL | 16 µg/mL | 16 µg/mL | 32 µg/mL | 4 µg/mL | –
